Results: US10703746B2, “Mutant IDH1 inhibitors useful for treating cancer” (THE UNITED STATES OF AMERICA, AS REPRESENTED BY THE …, priority 2014, dated 2020)

Assays:
IDH1 R132H = IDH1 R132H (Homo sapiens, UniProt O75874, R132H); assay: IDH1 R132H enzymatic assay (NADPH depletion coupled to diaphorase/resazurin); assay type: biochemical
Experimental: (§1) Assays were conducted in a 1536-well black solid-bottom plate with a final assay volume of 9 μL.
Specifically, for IDH1 R132H, 3 μL of enzyme (4 mM β-ME, 0.0005 mg/mL IDH1 R132H, 150 mM NaCl, 20 mM Tris pH 7.5, 10 mM MgCl2, 0.05% BSA) were added to the plate, followed by the addition of 23 nL of test compound in DMSO. The plate was lidded and incubated at room temperature for 30 minutes at which time 3 μL of substrate were added (0.016 mM NADPH, 2 mM α-KG, 150 mM NaCl, 20 mM Tris pH 7.5, 10 mM MgCl2, 0.05% BSA). This reaction was incubated at room-temperature for 60 minutes at which time the detection mix was added (0.06 mg/mL diaphorase, 0.036 mM resazurin, 150 mM NaCl, 20 mM Tris pH 7.5, 10 mM MgCl2, 0.05% BSA). […]

IDH1 R132C = IDH1 R132C (Homo sapiens, UniProt O75874, R132C); assay: IDH1 R132C enzymatic assay (NADPH depletion coupled to diaphorase/resazurin); assay type: biochemical
Experimental: as §1
For IDH1 R132C, 3 μL of enzyme (0.00032 mg/mL IDH1 […], 10% glycerol, 50 mM potassium phosphate pH 6.5, 5 mM MgCl2, 0.03% BSA) were added to the plate, followed by the addition of 23 nL of test compound in DMSO. The plate was lidded and incubated at room temperature for 30 minutes at which time 3 μL of substrate were added (0.012 mM NADPH, 0.6 mM α-KG, 10% glycerol, 50 mM potassium phosphate pH 6.5, 5 mM MgCl2, 0.03% BSA). […]

[1] = IDH1 R132H enzymatic inhibition, IC50 class
[2] = IDH1 R132C enzymatic inhibition, IC50 class
[3] = enzymatic inhibition, IDH1 R132H
[4] = enzymatic inhibition, IDH1 R132C

Chain of IDH1 R132C (O75874 whole entry R132C): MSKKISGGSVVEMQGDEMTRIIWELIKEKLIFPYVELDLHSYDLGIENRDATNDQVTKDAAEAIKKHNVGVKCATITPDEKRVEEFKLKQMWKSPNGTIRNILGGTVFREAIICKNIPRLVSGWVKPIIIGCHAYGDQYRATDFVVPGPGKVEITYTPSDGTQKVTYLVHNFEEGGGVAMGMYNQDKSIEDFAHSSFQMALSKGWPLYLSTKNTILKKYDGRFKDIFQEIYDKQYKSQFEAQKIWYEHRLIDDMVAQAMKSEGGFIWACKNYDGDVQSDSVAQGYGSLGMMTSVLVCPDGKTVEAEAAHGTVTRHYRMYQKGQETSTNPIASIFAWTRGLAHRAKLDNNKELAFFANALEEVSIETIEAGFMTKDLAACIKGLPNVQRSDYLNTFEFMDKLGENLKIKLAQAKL
Chain of IDH1 R132H (O75874 whole entry R132H): as the sequence (O75874 whole entry R132C) above, with C132H counted along it

IC50 (IDH1 R132H; [1]) [nM] | IC50 (IDH1 R132C; [2]) [nM] | IC50 (IDH1 R132H; [3]) [nM] | IC50 (IDH1 R132C; [4]) [nM] | Compound
< 300 | 300 to 1000 |  |  | COc1ccc(Cl)c(-n2c(C=C(C)C)c(C(=O)N3CCNCC3)cc(-c3ccn(-c4ccc(Cl)cc4)n3)c2=O)c1 [Compound 389]
300 to 1000 | < 300 |  |  | CCc1cccc(CC)c1-n1c(CC(C)C)c(C(=O)N2CCNCC2)cc(-c2nc(-c3ccc(Cl)cc3)c(Cl)s2)c1=O [Compound 662]
300 to 1000 | 300 to 1000 |  |  | CCc1cccc(CC)c1-n1c(C)c(C(=O)N2CCCNCC2)cc(-c2nc(-c3ccc(Cl)cc3)cs2)c1=O [Compound 66]
< 300 | < 300 |  |  | CCc1cccc(CC)c1-n1c(C=C(C)C)c(C(=O)N2CCNCC2(C)C)cc(-c2nc(-c3ccc(Cl)cc3)cs2)c1=O [Compound 366]
1000 to 5000 | 5000 to 20000 |  |  | CCc1cccc(CC)c1-n1c(C(C)C)c(C(=O)O)cc(-c2nc(-c3ccc(Cl)cc3)cs2)c1=O [Compound 98]
1000 to 5000 | 1000 to 5000 |  |  | CC(=O)c1ccccc1-n1c2c(cc(-c3nc(-c4ccc(Cl)cc4)cs3)c1=O)C(=O)CC(C)(C)C2 [Compound 286]
< 300 | < 300 |  |  | CC(C)=Cc1c(C(=O)N2CCNCC2)cc(-c2nc(-c3ccc(Cl)cc3)cs2)c(=O)n1-c1ccccc1OC(C)C [Compound 399]
1000 to 5000 | 1000 to 5000 |  |  | CCc1cccc(CC)c1-n1c(CC(C)C)c(C(=O)N2CCCC2CO)cc(-c2nc(-c3ccc(Cl)cc3)cs2)c1=O (stereo not shown) [Compound 243]
300 to 1000 | 1000 to 5000 |  |  | CCc1cccc(CC)c1-n1c(C)c(C(=O)N2CCN[C@@H](C(=O)O)C2)cc(-c2nc(-c3ccc(Cl)cc3)cs2)c1=O [Compound 21]
 |  | 1000 to 5000 | 300 to 1000 | CCc1cccc(CC)c1-n1c(CC2CCCCO2)c(C(=O)N2CCNCC2)cc(-c2nc(-c3ccc(Cl)cc3)cs2)c1=O (stereo not shown) [Compound 455]
 |  | < 300 | 300 to 1000 | CCOc1ccc(F)cc1-n1c(C=C(C)C)c(C(=O)N2CCNCC2)cc(-c2nc(-c3ccc(C(F)(F)F)nc3)cs2)c1=O [Compound 477]
300 to 1000 | < 300 |  |  | CCc1cccc(CC)c1-n1c(CC(C)C)c(C(=O)N2CCNC(c3ccccc3)C2)cc(-c2nc(-c3ccc(Cl)cc3)cs2)c1=O (stereo not shown) [Compound 202]
 |  | 300 to 1000 | < 300 | CCc1cccc(CC)c1-n1c(C=C(C)C)c(C(=O)N2CCNC(=O)C2c2ccccc2)cc(-c2nc(-c3ccc(Cl)cc3)cs2)c1=O (stereo not shown) [Compound 499]
300 to 1000 | 300 to 1000 |  |  | CCOc1ccc(Cl)cc1-n1c(CC(C)C)c(C(=O)N2CCNCC2)cc(-c2nc(-c3ccc(C(F)F)cc3)cs2)c1=O [Compound 687]
300 to 1000 | < 300 |  |  | CCc1cccc(CC)c1-n1c(CC(C)C)c(C(=O)N2CCNCC2C)cc(-c2nc(-c3ccc(Cl)cc3)cs2)c1=O (stereo not shown) [Compound 43]
 |  | 300 to 1000 | < 300 | CCc1cccc(CC)c1-n1c(C2CCC2)c(C(=O)N2CCNCC2)cc(-c2nc(-c3ccc(Cl)cc3)cs2)c1=O [Compound 434]
 |  | < 300 | < 300 | CCc1cccc(CC)c1-n1c(C=C(C)C)c(C(=O)N2C[C@H]3C[C@@H]2CN3)cc(-c2nc(-c3ccc(Cl)cc3)cs2)c1=O [Compound 447]

Continued, compound first:

Compound | IC50 (IDH1 R132H; [1]) [nM] | IC50 (IDH1 R132C; [2]) [nM] | IC50 (IDH1 R132H; [3]) [nM] | IC50 (IDH1 R132C; [4]) [nM]
Cc1ccc(N)cc1-n1c2c(cc(-c3nc(-c4ccc(Cl)cc4)cs3)c1=O)C(=O)CC(C)(C)C2 [Compound 26] | 1000 to 5000 | 1000 to 5000 |  | 
CCc1cccc(CC)c1-n1c(C)c(C(=O)N2CCCC(N)C2)cc(-c2nc(-c3ccc(Cl)cc3)cs2)c1=O (stereo not shown) [Compound 223] | 1000 to 5000 | < 300 |  | 
COc1ccc(OC)c(-n2c(=O)c(-c3nc(-c4ccc(Cl)cc4)cs3)cc3c(OC)cncc32)c1 [Compound 289] | > 20000 | 5000 to 20000 |  | 
O=C1CCCc2c1cc(-c1nc(-c3ccc(Cl)cc3)cs1)c(=O)n2-c1ccc(CO)cc1 [Compound 649] | > 20000 | > 20000 |  | 
CCc1cccc(CC)c1-n1c2c(cc(-c3nc(-c4ccc(O)cc4)cs3)c1=O)C(=O)CC(C)(C)C2 [Compound 281] | 5000 to 20000 | 5000 to 20000 |  | 
CCc1cccc(CC)c1-n1c(C)c(C(=O)NC[C@@H](C)O)cc(-c2nc(-c3ccc(Cl)cc3)cs2)c1=O [Compound 151] | 1000 to 5000 | 300 to 1000 |  | 
CCc1cccc(CC)c1-n1c(C)c(C(=O)N(C)CCCNC)cc(-c2nc(-c3ccc(Cl)cc3)cs2)c1=O [Compound 133] | 5000 to 20000 | 1000 to 5000 |  | 
CCc1cccc(CC)c1-n1c(C)c(C(=O)NCCN)cc(-c2nc(-c3ccc(Cl)cc3)cs2)c1=O [Compound 303] | 300 to 1000 | 1000 to 5000 |  | 
CCc1cccc(CC)c1-n1c(C(C)C)c(C(=O)NCCO)cc(-c2nc(-c3ccc(Cl)cc3)cs2)c1=O [Compound 218] | < 300 | 300 to 1000 |  | 
COc1ccc(OC)c(-n2c3c(cc(-c4nc(-c5ccccc5)cs4)c2=O)C(=O)CC(C)(C)C3)c1 [Compound 225] | 1000 to 5000 | 1000 to 5000 |  | 
CCc1cccc(CC)c1-n1c(CC(C)C)c(C(=O)N2CCNCC2)cc(-c2nc(-c3ccc(OCc4ccccc4)cc3)c(C)s2)c1=O [Compound 39] | 5000 to 20000 | 5000 to 20000 |  | 
O=c1c(-c2nc(-c3ccc(Cl)cc3)cs2)cc2c(O)cccc2n1-c1cccnc1 [Compound 514] |  |  | > 20000 | 1000 to 5000
Cc1conc1-n1c2c(cc(-c3nc(-c4ccc(Cl)cc4)cs3)c1=O)C(=O)CC(C)(C)C2 [Compound 472] |  |  | 1000 to 5000 | 1000 to 5000
CCc1cccc(CC)c1-n1c2c(cc(-c3nc(-c4ccc(C)nc4)c(C)s3)c1=O)C(=O)CC(C)(C)C2 [Compound 299] | 1000 to 5000 | 1000 to 5000 |  | 
CN(C)c1ccccc1-n1c2c(cc(-c3nc(-c4ccc(Cl)cc4)cs3)c1=O)C(=O)CC(C)(C)C2 [Compound 56] | 300 to 1000 | 300 to 1000 |  | 
COc1cc(F)ccc1-n1c2c(cc(-c3nc(-c4ccc(Cl)cc4)cs3)c1=O)C(=O)CC(C)(C)C2 [Compound 557] |  |  | 1000 to 5000 | 1000 to 5000
CCc1cccc(CC)c1-n1c2c(cc(-c3nc(-c4ccc(OC)cc4)cs3)c1=O)C(=O)CC(C)(C)C2 [Compound 183] | 300 to 1000 | 300 to 1000 |  | 
CCc1cccc(CC)c1-n1c(CC(C)C)c(C(=O)NC[C@@H](C)O)cc(-c2nc(-c3ccc(Cl)cc3)cs2)c1=O [Compound 276] | 300 to 1000 | < 300 |  | 
CCc1cccc(CC)c1-n1c(CC(C)C)c(C(=O)NC(CC)CO)cc(-c2nc(-c3ccc(Cl)cc3)cs2)c1=O (stereo not shown) [Compound 196] | 1000 to 5000 | < 300 |  | 
CCc1cccc(CC)c1-n1c(C)c(C(=O)NCCCNC)cc(-c2nc(-c3ccc(Cl)cc3)cs2)c1=O [Compound 304] | 1000 to 5000 | 300 to 1000 |  | 
CCc1cccc(CC)c1-n1c(C)c(C(=O)NC(C)(C)C)cc(-c2nc(-c3ccc(Cl)cc3)cs2)c1=O [Compound 123] | 5000 to 20000 | 1000 to 5000 |  | 
CCc1cccc(CC)c1-n1c(CC2CCNCC2)c(C(=O)NC)cc(-c2nc(-c3ccc(Cl)cc3)cs2)c1=O [Compound 365] | 5000 to 20000 | 5000 to 20000 |  | 
COc1ccc(OC)c(-n2c3c(cc(-n4cc(-c5ccccc5)cn4)c2=O)C(=O)CC(C)(C)C3)c1 [Compound 120] | > 20000 | > 20000 |  | 
CCc1cccc(CC)c1-n1c(CC(C)C)c(C(=O)N2CCNCC2)cc(-c2nc(-c3ccc(Cl)cc3Cl)c(C)s2)c1=O [Compound 637] | 300 to 1000 | 300 to 1000 |  | 
